Measurements from patent US11827629B2, “CDGSH iron sulfur domain 2 activators and use thereof” (National Health Research Institutes, priority 2021, dated 2023).

Legend:
[1] = test system: Cisd2 promoter with firefly luciferase reporter; assay: Cisd2-luciferase reporter assay in HEK293-CISD2 cells; type: cell-based; conditions: Homo sapiens, 24 hours incubation, luciferase luminescence
Outline: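 HEK293 cells stably carrying Cisd2 promoter-firefly luciferase, seeded at 3×10^3 cells/well, exposed to compounds 24 h at 37 °C; luminescence read after 5 min ONE-Glo at room temperature. EC50 reported in classes: A <1 μM, B 1-5 μM, C 5-10 μM.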

Cisd2 hKO-het mice = assay: In vivo NAFLD study in Cisd2 hKO-het mice (histopathology, serum biochemistry); conditions: Cisd2 hKO-het male mice, 0.015 wt % in diet for 4 weeks
Method: Compound 28 of this invention was evaluated for its anti-nonalcoholic fatty liver disease (NAFLD) effect and in vivo toxicity following an assay described below.
Cisd2 floxed allele (Cisd2 f/f) mice were prepared following a procedure described in Wang et al., Hum. Mol. Genet. 23, 4770-85(2014). To obtain Cisd2 heterozygous hepatocyte-specific knockout (Cisd2 hKO-het, Cisd2 f/+; Alb-Cre Tg), Cisd2 f/f mice were bred with Albumin-Cre transgenic (Alb-Cre Tg, JAX003574) mice. After one generation, Cisd2 hKO-het mice were obtained. Male mice were chosen to be used in this study. All mice have a pure or congenic C57BL/6 background and were bred/housed in a specific pathogen-free facility with a 12 h light/12 h dark cycle at a temperature of 20-22° C. Groups of mice at 8 weeks old were provided a diet (AIN93G, TestDiet) containing a vehicle (0.14 wt % of DMF and 0.15 wt % of Cremophor® EL) or compound 28 (0.015 wt %) for 4 weeks.
Histopathology was used to evaluate the efficacy of Compound 28 in ameliorating NAFLD. Liver tissues were collected and fixed with 10% formalin at 4° C. overnight. They were then processed in a tissue processor (STP120, MICROM), followed by embedding in paraffin. H&E of tissue sections (3-4 m) were carried out by a standard protocol. […]

Cisd2 hKO male mice = assay: In vivo fructose-induced NASH model in Cisd2 hKO mice (histopathology, GTT, ITT); conditions: 0.015 wt % in diet for 5 months
Text: Compound 28 was used to alleviate nonalcoholic steatohepatitis (NASH) in Cisd2 hKO male mice described above.
Cisd2 hKO were bred for two generations. […] They were fed 30% (w/v) fructose (Alfa Aesar A17718) in water to establish a fructose-induced NASH model. Groups of mice at 2 months old were provided with a diet (AIN93G, TestDiet) containing a vehicle (0.14 wt % of DMF and 0.15 wt % of Cremophor® EL) or Compound 28 (0.015 wt %) for 5 months. The food and drinking water were provided ad libitum.
Histopathology was used to evaluate the efficacy of Compound 28 in alleviating NASH. Liver tissues were processed and stained as described in Example 53 above.
An oral glucose tolerance test (GTT) and an insulin tolerance test (ITT) were performed to study beneficial effects of Compound 28 in the fructose-induced NASH model. In the oral glucose tolerance test, mice were fasted for 14 hours (7 p.m. to 9 a.m.) and then were orally administrated with glucose water (1.5 mg/g body weight) using a feeding needle. Blood samples were collected from tail vein before (0 min) and after glucose treatment at predetermined time points. Blood glucose levels were measured using OneTouch® Ultra glucose test strips and SureStep® Meter (LifeScan). In the insulin tolerance test, mice were fasted for 2 hours (9 a.m. to 11 a.m.) and then intraperitoneally injected with insulin (0.75 U/kg body weight) (Actrapid® human regular insulin, Novo Nordisk). Blood samples were collected and monitored at predetermined time points.

Male C57BL/6 mice = assay: In vivo doxorubicin-induced cachexia and hepatotoxicity; conditions: 1 mg/kg i.p. twice a day for 2 days, doxorubicin 25 mg/kg i.p.
Method: Compound 28 was used in rescuing doxorubicin-induced cachexia and hepatotoxicity in the following in vivo study.
Male C57BL/6 mice between 7 and 8 months were pretreated with Compound 28 (1 mg/kg) or a vehicle (1.5 wt % of DMF and 3 wt % of Cremophor® EL in PBS) via intraperitoneal injection (i.p.) twice a day for 2 days. At day 0, 1 hour after the treatment with compound 28, doxorubicin (25 mg/kg, i.p.) or another vehicle (10% DMSO in normal saline) were injected into mice.
Different tissues including livers, cardiac muscle (left ventricle), skeletal muscle (gastrocnemius), brown adipose tissue, and white adipose tissue were weighted and collected after mice were sacrificed. The tissues were fixed with 10% formalin at 4° C. overnight, processed in a tissue processor, and then embedded in paraffin. H&E of tissue sections (3-4 m) were carried out by a standard protocol as described above.

In the case of O=C(CS(=O)(=O)c1nccs1)N1Cc2ccccc2C1 [Compound 28, 1-(1,3-dihydro-2H-isoindol-2-yl)-2-(1,3-thiazol-2-ylsulfonyl)ethanone], the EC50 [1] is reported as < 1 µM, the “anti-nonalcoholic fatty liver disease (NAFLD) effect” value (Cisd2 hKO-het mice; liver histopathology) is reported as “ameliorated NAFLD in Cisd2 hKO-het mice” and the in vivo toxicity (Cisd2 hKO-het mice; serum ALT, AST, BUN, CRE) is reported as “without observed toxicity”. For the same compound, the “effect on fructose-induced NASH” value (Cisd2 hKO male mice; Cisd2 hKO male mice, 30% fructose in water, liver histopathology) was “ameliorate fructose-induced NASH”, the toxicity (Cisd2 hKO male mice; fructose-induced NASH model) was “without obvious toxicity” and the “effect on fructose-induced insulin resistance” value (Cisd2 hKO male mice; insulin tolerance test) was “alleviate fructose-induced glucose intolerance and insulin resistance”. For the same compound, the “effect on fructose-induced glucose intolerance” value (Cisd2 hKO male mice; oral glucose tolerance test) was “alleviate fructose-induced glucose intolerance”, the “effect on doxorubicin-induced hepatotoxicity” value (Male C57BL/6 mice) was “alleviated doxorubicin-induced hepatotoxicity” and the “effect on doxorubicin-induced cachexia” value (Male C57BL/6 mice; tissue weights) was “alleviated doxorubicin-induced hepatotoxicity and cachexia”.
